Measured values from US20250222008A1, “EYEDROPS CONTAINING AN ALPHA1-BLOCKER FOR INHIBITING MYOPIA PROGRESSION” (TSUBOTA LABORATORY, INC., priority 2022, published 2025).
Where a name gives a salt, the structure may show the parent alone.

What was measured:
[1] = test system: mouse myopic models (−30D lens on right eye, 0D lens on left eye); assay: Axial length measurement in lens-induced myopia mice (spectral domain optical coherence tomography); assay type: in vivo, mice (C57BL6/J); conditions: for myopia progression judged by axial length difference −30D vs 0D eyes: eyedrops 0.1 mg/mL once per day; for axial myopia progression judged by axial length difference −30D vs 0D eyes: Experiment 3, eyedrops 0.01% (0.01 mg/mL) once per day
Protocol: (§1) During the myopia induction period, eyedrops were administered once per day. Phosphate buffered saline (PBS) eyedrops were classified as a control group (Control), and α1-blocker eyedrops were classified as test groups.
(§2) The refractive index and the axial length of the mouse eyeball after three weeks were measured and the amounts of change were calculated. The refractive values were measured by using an infrared photorefractor for mice (fabricated by Prof Schaeffel of University of Tubingen). The more negative the refractive index, the more severe the myopia. The axial lengths were measured by using spectral domain optical coherence tomography (Envisu R4310, manufactured by Leica). The greater the value of the axial length, the greater the severity of myopia.
(§3) The eyedrops were administered once per day for the three weeks of the myopia induction period.
(§4) α1-blocker eyedrops having concentrations (mg of α1-blocker salt contained in 1 mL: mg/mL) of 0.001 (mg/mL), 0.01 (mg/mL), and 0.1 (mg/mL) were used as the eyedrops. The eyedrops were administered once per day for the three weeks of the myopia induction period. The control group was used with PBS eyedrops not containing an α1-blocker, and the α1-blocker eyedrops were eyedrops obtained by containing bunazosin hydrochloride at the predetermined concentrations.
(§5) The PBS (control group), bunazosin eyedrops (bunazosin of 0.01%, bunazosin hydrochloride of 0.01 mg/mL), silodosin eyedrops (silodosin of 0.01%, silodosin of 0.01 mg/mL), and tamsulosin eyedrops (tamsulosin of 0.01%, tamsulosin hydrochloride of 0.01 mg/mL) were used as the eyedrops. The eyedrops were administered once per day for the three weeks of the myopia induction period, as in Experiments 1 and 2. For the control group as well, PBS eyedrops not containing an α1-blocker were used, as in Experiments 1 and 2.

[2] = test system: mouse myopic models (−30D lens on right eye, 0D lens on left eye); assay: Refractive power measurement in lens-induced myopia mice (infrared photorefractor); assay type: in vivo, mice (C57BL6/J)
Protocol: as §1, §2, §3, §4, §5

[3] = cited from earlier work
[4] = Experiment 1, eyedrops 0.1 mg/mL once per day for three weeks, amount of change
[5] = Experiment 2, concentration 0.001 mg/mL
[6] = Experiment 2, concentration 0.001 mg/mL, once per day, three weeks
[7] = Experiment 2, concentration 0.01 mg/mL
[8] = Experiment 2, concentration 0.01 mg/mL, once per day, three weeks
[9] = Experiment 2, concentration 0.1 mg/mL
[10] = Experiment 2, concentration 0.1 mg/mL, once per day, three weeks
[11] = Experiment 1, eyedrops 0.1 mg/mL once per day for three weeks of myopia induction, amount of change
[12] = Experiment 1, eyedrops 0.1 mg/mL once per day, three weeks
[13] = Experiment 3, eyedrops 0.01% (0.01 mg/mL) once per day, three weeks

Structure (SMILES) | axial length, eyes with the 0D lens [1, 4] [mm] | axial length, eyes with the −30D lens [1, 4] [mm] | myopia progression judged by axial length difference −30D vs 0D eyes ([1]; Experiment 1, three weeks) | axial myopia progression judged by axial length difference −30D vs 0D eyes ([1]; three weeks) | refractive power, eyes with the −30D lens [2, 11] [D] | refractive power, eyes with the 0D lens [2, 4] [D] | myopia progression judged by refractive power difference −30D vs 0D eyes [2, 12] | myopia progression judged by refractive power difference −30D vs 0D eyes [2, 13] | solubility with respect to water [3] | also measured
CCCC(=O)N1CCCN(c2nc(N)c3cc(OC)c(OC)cc3n2)CC1 [bunazosin] | 0.187±0.019 | 0.191±0.026 | progression of myopia was suppressed | progression of axial myopia was suppressed | −0.74±4.07 | 3.65±4.72 | progression of myopia was suppressed | progression of myopia was suppressed | – | myopia progression judged by axial length [1, 5]: showed an elongation in axial length; axial length, eyes with the 0D lens [1, 6]: 0.196±0.008 mm; axial length, eyes with the −30D lens [1, 6]: 0.228±0.017 mm; myopia progression judged by axial length [1, 7]: progression of myopia was suppressed; axial length, eyes with the 0D lens [1, 8]: 0.192±0.021 mm; axial length, eyes with the −30D lens [1, 8]: 0.209±0.024 mm; myopia progression judged by axial length [1, 9]: progression of myopia was suppressed; axial length, eyes with the 0D lens [1, 10]: 0.180±0.028 mm; axial length, eyes with the −30D lens [1, 10]: 0.189±0.024 mm; myopia progression judged by refractive power [2, 5]: a sufficient myopia progression suppressing effect was not obtained; refractive power, eyes with the 0D lens [2, 6]: −0.33±3.47 D; refractive power, eyes with the −30D lens [2, 6]: −10.90±4.13 D; myopia progression judged by refractive power [2, 7]: progression of myopia was suppressed; refractive power, eyes with the 0D lens [2, 8]: −0.83±3.20 D; refractive power, eyes with the −30D lens [2, 8]: −6.92±4.08 D; myopia progression judged by refractive power [2, 9]: progression of myopia was suppressed; refractive power, eyes with the 0D lens [2, 10]: 3.19±3.76 D; refractive power, eyes with the −30D lens [2, 10]: −1.26±3.28 D
COc1cc2nc(N3CCN(C(=O)C4COc5ccccc5O4)CC3)nc(N)c2cc1OC (stereo not drawn) [doxazosin hydrochloride] | – | – | – | – | – | – | – | – | approximately 5 mg/mL | –
COc1cc2nc(N3CCN(C(=O)c4ccco4)CC3)nc(N)c2cc1OC [prazosin] | – | – | – | – | – | – | – | – | 1.4 mg/mL | –
C[C@H](Cc1cc2c(c(C(N)=O)c1)N(CCCO)CC2)NCCOc1ccccc1OCC(F)(F)F [silodosin] | – | – | – | progression of axial myopia was suppressed | – | – | – | progression of myopia was suppressed | – | –
CCOc1ccccc1OCCN[C@H](C)Cc1ccc(OC)c(S(N)(=O)=O)c1 [tamsulosin] | – | – | – | progression of axial myopia was suppressed | – | – | – | progression of myopia was suppressed | – | –
COc1ccccc1N1CCN(CCCNc2cc(=O)n(C)c(=O)n2C)CC1 [urapidil] | 0.217±0.014 | 0.233±0.020 | progression of myopia was suppressed | – | −5.51±6.29 | 0.33±7.07 | progression of myopia was suppressed | – | 25 mg/mL | –
